“And” between values parts separate entries of the source, which are not always exact repeats. Identical values can stand only once. ± gives the uncertainty stated by the source.
Assay: xn = mol fraction of the nth substance listed

O=S(=O)([O-])[O-].[Cu+2] + O
viscosity [mPa·s]
Settings	308.15 K	313.15 K	323.15 K
101.3 kPa, x1 = 0.00112	0.742 ± 0.019	0.673 ± 0.018	0.5823 ± 0.016
101.3 kPa, x1 = 0.002247	0.7918 ± 0.021	0.7176 ± 0.019	0.6001 ± 0.016
101.3 kPa, x1 = 0.004484	0.8376 ± 0.022	0.7579 ± 0.02	0.6314 ± 0.017
101.3 kPa, x1 = 0.008927	0.9348 ± 0.024	0.8476 ± 0.022	0.7076 ± 0.019
101.3 kPa, x1 = 0.0177	–	0.977 ± 0.025	0.817 ± 0.021
101.33 kPa, x1 = 0.000905	0.7428 ± 0.014	0.6739 ± 0.013	0.5628 ± 0.011
101.33 kPa, x1 = 0.002718	0.7922 ± 0.015	0.7182 ± 0.014	0.6005 ± 0.012
101.33 kPa, x1 = 0.00453	0.838 ± 0.016	0.7585 ± 0.014	0.6319 ± 0.012
101.33 kPa, x1 = 0.006344	0.8866 ± 0.017	0.8013 ± 0.015	0.6685 ± 0.013
101.33 kPa, x1 = 0.008159	0.9348 ± 0.017	0.8482 ± 0.016	0.7082 ± 0.014

CCCCCCCCCCCCCC[P+](CCCCCC)(CCCCCC)CCCCCC.[O-]c1ccccc1 + O=C=O
Settings	viscosity [mPa·s]
298.15 K, 100 kPa, x2 = 0.5	368 ± 14

OCc1ccccc1 + O=[N+]([O-])c1ccccc1
303.15 K, 101 kPa
Settings	viscosity [mPa·s]
x1 = 0.1725	1.292 ± 0.012
x1 = 0.2352	1.292 ± 0.012
x1 = 0.3083	1.389 ± 0.013
x1 = 0.4517	1.657 ± 0.015
x1 = 0.5919	2.015 ± 0.018
x1 = 0.6592	2.234 ± 0.02
x1 = 0.7706	2.658 ± 0.024
x1 = 0.8314	2.956 ± 0.026
x1 = 0.9106	3.486 ± 0.03

NCCO + OCCO
101.33 kPa
Settings	viscosity [mPa·s]
293.15 K, x2 = 0.1246	29.94 ± 0.35
293.15 K, x2 = 0.2055	32.9 ± 0.38
293.15 K, x2 = 0.2907	35.07 ± 0.4
293.15 K, x2 = 0.4172	36.01 ± 0.41
293.15 K, x2 = 0.496	34.47 ± 0.39
293.15 K, x2 = 0.5176	33.73 ± 0.38
293.15 K, x2 = 0.6654	29.06 ± 0.33
293.15 K, x2 = 0.701	28.14 ± 0.32
293.15 K, x2 = 0.789	25.17 ± 0.28
293.15 K, x2 = 0.8248	23.8 ± 0.27
293.15 K, x2 = 0.8691	22.48 ± 0.25
293.15 K, x2 = 0.9427	21.11 ± 0.24
293.15 K, x2 = 0.9527	20.92 ± 0.24
303.15 K, x1 = 0.155	16.74 ± 0.2
303.15 K, x1 = 0.303	19.61 ± 0.24
313.15 K, x1 = 0.155	11.41 ± 0.14
313.15 K, x1 = 0.303	13.08 ± 0.16
323.15 K, x1 = 0.155	8.112 ± 0.099
323.15 K, x1 = 0.303	9.172 ± 0.11

OCc1ccccc1 + OCCO
293.15 K, 101.33 kPa
Settings	viscosity [mPa·s]
x2 = 0.0946	7.031 ± 0.056
x2 = 0.1648	7.627 ± 0.06
x2 = 0.1834	7.781 ± 0.06
x2 = 0.2979	8.824 ± 0.066
x2 = 0.4721	10.98 ± 0.077
x2 = 0.5503	12.18 ± 0.084
x2 = 0.6255	13.48 ± 0.091
x2 = 0.6888	14.69 ± 0.097
x2 = 0.7556	16.05 ± 0.1
x2 = 0.7929	16.82 ± 0.11
x2 = 0.8219	17.42 ± 0.11
x2 = 0.8789	18.75 ± 0.12
x2 = 0.9113	19.36 ± 0.12

[Br-].[Na+] + OCCO
101 kPa, x1 = 0.142
Settings	viscosity [mPa·s]
303 K	39.03 ± 0.57
313 K	25.16 ± 0.35
323 K	17.24 ± 0.23

CCCC[n+]1ccn(C)c1.C[C@H](N)C(=O)[O-] + OCc1ccccc1
101 kPa
Settings	viscosity [mPa·s]
298.15 K, x1 = 0.4864	18.75 ± 1.2
313.15 K, x1 = 0.6945	18.65 ± 1.2

CC(=O)OC(C)=O + Oc1ccccc1
viscosity [mPa·s], 101.33 kPa
Settings	298.15 K	323.15 K
x2 = 0.0899	0.922 ± 0.0092	0.666 ± 0.0067
x2 = 0.1347	0.98 ± 0.0098	0.706 ± 0.0071
x2 = 0.1492	1.014 ± 0.01	0.733 ± 0.0073
x2 = 0.2953	1.267 ± 0.013	0.896 ± 0.009
x2 = 0.3588	1.412 ± 0.014	0.951 ± 0.0095
x2 = 0.4184	1.559 ± 0.016	1.05 ± 0.01
x2 = 0.4673	1.706 ± 0.017	1.1 ± 0.011
x2 = 0.4678	1.707 ± 0.017	1.1 ± 0.011
x2 = 0.5	1.839 ± 0.018	1.164 ± 0.012
x2 = 0.5169	1.89 ± 0.019	1.191 ± 0.012
x2 = 0.5846	2.069 ± 0.021	1.275 ± 0.013
x2 = 0.6414	2.668 ± 0.027	1.513 ± 0.015
x2 = 0.78	3.958 ± 0.04	2.017 ± 0.02
x2 = 0.8878	5.906 ± 0.059	2.623 ± 0.026

OCc1ccccc1 + c1ccccc1
Settings	viscosity
293.15 K, 101.32 kPa, x1 = 0.03068	0.6725 ± 0.14 mPa·s
293.15 K, 101.32 kPa, x1 = 0.04509	0.6903 ± 0.14 mPa·s
293.15 K, 101.32 kPa, x1 = 0.1059	0.7825 ± 0.16 mPa·s
293.15 K, 101.32 kPa, x1 = 0.1545	0.8652 ± 0.17 mPa·s
293.15 K, 101.32 kPa, x1 = 0.1997	0.9735 ± 0.2 mPa·s
298.15 K, 101.33 kPa, x1 = 0.1	0.7 ± 0.019 mPa·s
298.15 K, 101.33 kPa, x1 = 0.2	0.855 ± 0.017 mPa·s and 0.855 ± 0.023 mPa·s
298.15 K, 101.33 kPa, x1 = 0.5	1.712 ± 0.034 mPa·s and 1.712 ± 0.047 mPa·s
298.15 K, 101.33 kPa, x1 = 0.8	3.267 ± 0.091 mPa·s
303.15 K, 101 kPa, x1 = 0.1079	0.8732 ± 0.0083 mPa·s
303.15 K, 101 kPa, x1 = 0.2167	1.03 ± 0.0097 mPa·s
303.15 K, 101 kPa, x1 = 0.3472	1.291 ± 0.012 mPa·s
303.15 K, 101 kPa, x1 = 0.4657	1.601 ± 0.015 mPa·s
303.15 K, 101 kPa, x1 = 0.5516	1.877 ± 0.017 mPa·s
303.15 K, 101 kPa, x1 = 0.6577	2.306 ± 0.021 mPa·s
303.15 K, 101 kPa, x1 = 0.7244	2.653 ± 0.023 mPa·s
303.15 K, 101 kPa, x1 = 0.868	3.594 ± 0.031 mPa·s
303.15 K, 101 kPa, x1 = 0.9178	3.983 ± 0.035 mPa·s
308.15 K, 101.33 kPa, x1 = 0.1	0.597 ± 0.016 mPa·s
308.15 K, 101.33 kPa, x1 = 0.2	0.714 ± 0.019 mPa·s
308.15 K, 101.33 kPa, x1 = 0.5	1.379 ± 0.038 mPa·s
308.15 K, 101.33 kPa, x1 = 0.8	2.433 ± 0.067 mPa·s
318.15 K, 101.33 kPa, x1 = 0.1	0.526 ± 0.014 mPa·s
318.15 K, 101.33 kPa, x1 = 0.2	0.617 ± 0.017 mPa·s
318.15 K, 101.33 kPa, x1 = 0.5	1.139 ± 0.031 mPa·s
318.15 K, 101.33 kPa, x1 = 0.8	1.904 ± 0.052 mPa·s
323.15 K, 101.33 kPa, x1 = 0.1	0.493 ± 0.013 mPa·s
323.15 K, 101.33 kPa, x1 = 0.2	0.578 ± 0.012 mPa·s and 0.575 ± 0.016 mPa·s
323.15 K, 101.33 kPa, x1 = 0.5	1.026 ± 0.021 mPa·s and 1.026 ± 0.028 mPa·s
323.15 K, 101.33 kPa, x1 = 0.8	1.695 ± 0.046 mPa·s

c1ccc(-c2ccccc2)cc1 + c1ccccc1
298.15 K, 101 kPa
Settings	viscosity [mPa·s]
x1 = 0.1006	0.7585 ± 0.02
x1 = 0.1824	0.9014 ± 0.024
x1 = 0.3638	1.298 ± 0.034

O=CNc1ccccc1 + c1ccncc1
298.15 K, 101 kPa
Settings	viscosity [mPa·s]
x1 = 0.06989	1.089 ± 0.22
x1 = 0.1339	1.335 ± 0.27

— the CheMixHub viscosity set
